Data reported in ChEMBL document CHEMBL5579806, “Re-exploration of tetrahydro-β-carboline scaffold: Discovery of selective histone deacetylase 6 inhibitors with neurite outgrowth-promoting and neuroprotective activities” (Bioorg Med Chem Lett, 2024).
Calls of active or inactive are those of the source. The rule behind the calls is not given here.

Legend:
Histone deacetylase 1 = Histone deacetylase 1 (Homo sapiens, UniProt Q13547); assay: Inhibition of human HDAC1 using RHKKAc as substrate by fluorescence based assay
Sequence of Histone deacetylase 1 (Q13547 whole entry): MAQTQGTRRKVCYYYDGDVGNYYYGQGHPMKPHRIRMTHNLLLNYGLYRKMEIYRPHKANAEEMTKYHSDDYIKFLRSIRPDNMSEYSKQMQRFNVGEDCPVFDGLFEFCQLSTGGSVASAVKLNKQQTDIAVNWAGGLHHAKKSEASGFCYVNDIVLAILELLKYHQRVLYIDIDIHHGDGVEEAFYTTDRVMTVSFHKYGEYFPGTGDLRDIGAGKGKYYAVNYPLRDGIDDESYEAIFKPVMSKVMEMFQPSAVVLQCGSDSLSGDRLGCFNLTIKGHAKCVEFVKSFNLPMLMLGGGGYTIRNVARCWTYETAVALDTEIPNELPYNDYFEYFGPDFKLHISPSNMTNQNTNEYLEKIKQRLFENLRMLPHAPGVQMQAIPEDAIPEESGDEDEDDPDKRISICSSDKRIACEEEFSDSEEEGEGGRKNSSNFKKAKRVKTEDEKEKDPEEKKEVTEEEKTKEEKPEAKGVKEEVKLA

PC-12 [1] = assay: Induction of neurite outgrowth in NGF-induced rat PC-12 cells assessed as increase in percentage of neurite bearing cells at 3 uM relative to control; type: functional
PC-12 [2] = assay: Neuroprotective activity against H2O2-induced oxidative stress in rat PC-12 cells assessed as increase in cell viability at 5 uM incubated for 24 hrs; type: functional, cell-based
[3] = target: T1, Protein deacetylase HDAC6 (Homo sapiens, UniProt Q9UBN7); assay: Inhibition of human HDAC6 using RHKKAc as substrate by fluorescence based assay
T1 sequence (Q9UBN7 whole entry): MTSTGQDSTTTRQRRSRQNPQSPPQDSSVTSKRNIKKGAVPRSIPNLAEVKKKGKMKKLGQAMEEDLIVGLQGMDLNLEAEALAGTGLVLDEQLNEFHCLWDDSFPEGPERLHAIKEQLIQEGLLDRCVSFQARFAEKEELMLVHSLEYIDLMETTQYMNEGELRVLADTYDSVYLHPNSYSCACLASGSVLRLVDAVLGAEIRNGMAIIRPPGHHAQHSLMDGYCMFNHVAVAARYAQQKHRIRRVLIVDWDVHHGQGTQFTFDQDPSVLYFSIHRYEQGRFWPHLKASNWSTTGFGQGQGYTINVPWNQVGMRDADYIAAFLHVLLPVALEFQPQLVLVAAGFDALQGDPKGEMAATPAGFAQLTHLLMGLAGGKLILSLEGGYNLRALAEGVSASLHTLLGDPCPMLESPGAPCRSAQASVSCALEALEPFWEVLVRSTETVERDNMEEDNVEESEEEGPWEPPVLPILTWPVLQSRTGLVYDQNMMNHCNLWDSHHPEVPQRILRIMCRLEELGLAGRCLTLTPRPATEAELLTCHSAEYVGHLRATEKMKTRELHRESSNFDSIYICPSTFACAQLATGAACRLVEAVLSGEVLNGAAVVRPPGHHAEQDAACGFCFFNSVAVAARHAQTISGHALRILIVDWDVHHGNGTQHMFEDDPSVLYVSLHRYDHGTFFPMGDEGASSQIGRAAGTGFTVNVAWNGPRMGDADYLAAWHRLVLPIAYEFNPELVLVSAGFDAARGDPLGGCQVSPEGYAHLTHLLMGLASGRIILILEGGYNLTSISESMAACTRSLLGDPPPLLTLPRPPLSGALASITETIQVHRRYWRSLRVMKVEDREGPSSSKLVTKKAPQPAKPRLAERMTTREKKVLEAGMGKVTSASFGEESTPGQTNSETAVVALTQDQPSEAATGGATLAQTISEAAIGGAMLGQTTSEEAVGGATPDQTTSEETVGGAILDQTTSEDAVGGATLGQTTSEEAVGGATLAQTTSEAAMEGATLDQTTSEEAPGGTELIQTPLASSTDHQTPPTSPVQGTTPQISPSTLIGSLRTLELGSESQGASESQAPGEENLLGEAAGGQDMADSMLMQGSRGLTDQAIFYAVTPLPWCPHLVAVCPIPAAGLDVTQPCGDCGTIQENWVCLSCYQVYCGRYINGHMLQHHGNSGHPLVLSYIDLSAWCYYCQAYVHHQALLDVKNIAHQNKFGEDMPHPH

Homo sapiens = species: Homo sapiens; assay: Selectivity index, ratio of IC50 for inhibition of human HDAC1 to IC50 for inhibition of human HDAC6
PC-12 [4] = assay: Induction of neurite outgrowth in NGF-induced rat PC-12 cells; type: functional, cell-based; conditions: dose 1-10 µM
PC-12 [5] = assay: Neuroprotective activity against H2O2-induced oxidative stress in rat PC-12 cells assessed as cell viability at 5 uM incubated for 24 hrs (reference value: 62.5 %); type: functional; conditions: read-out: Activity
[6] = Neurotoxicity in rat PC-12 cells at 1 to 10 uM; type: toxicity, cell-based; conditions: pc-12, 10 µM, dose 1-10 µM
Histone deacetylase 2 = Histone deacetylase 2 (Homo sapiens, UniProt Q92769); assay: Inhibition of human HDAC2 using RHKKAc as substrate by fluorescence based assay
Sequence of Histone deacetylase 2 (Q92769 whole entry): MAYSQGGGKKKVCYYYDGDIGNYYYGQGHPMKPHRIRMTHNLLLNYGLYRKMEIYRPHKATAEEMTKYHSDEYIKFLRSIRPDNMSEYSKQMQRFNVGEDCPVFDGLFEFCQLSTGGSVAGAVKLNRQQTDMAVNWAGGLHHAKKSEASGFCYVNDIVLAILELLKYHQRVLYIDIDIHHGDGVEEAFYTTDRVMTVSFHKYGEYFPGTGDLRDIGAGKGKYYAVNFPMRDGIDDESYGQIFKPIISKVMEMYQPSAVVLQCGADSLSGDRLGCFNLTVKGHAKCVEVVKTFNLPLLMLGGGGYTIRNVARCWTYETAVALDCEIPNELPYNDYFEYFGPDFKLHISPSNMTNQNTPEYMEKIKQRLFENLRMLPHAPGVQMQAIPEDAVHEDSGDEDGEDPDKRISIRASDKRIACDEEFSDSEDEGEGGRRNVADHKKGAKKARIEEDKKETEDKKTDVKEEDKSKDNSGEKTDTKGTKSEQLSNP

[7] = target: Histone deacetylase 3/Nuclear receptor corepressor 2 (HDAC3/NCoR2) (Homo sapiens, UniProt O15379); assay: Inhibition of human HDAC3/NCOR2 using RHKKAc as substrate by fluorescence based assay; type: protein-complex assay
Sequence of Histone deacetylase 3/Nuclear receptor corepressor 2 (HDAC3/NCoR2) (O15379 whole entry): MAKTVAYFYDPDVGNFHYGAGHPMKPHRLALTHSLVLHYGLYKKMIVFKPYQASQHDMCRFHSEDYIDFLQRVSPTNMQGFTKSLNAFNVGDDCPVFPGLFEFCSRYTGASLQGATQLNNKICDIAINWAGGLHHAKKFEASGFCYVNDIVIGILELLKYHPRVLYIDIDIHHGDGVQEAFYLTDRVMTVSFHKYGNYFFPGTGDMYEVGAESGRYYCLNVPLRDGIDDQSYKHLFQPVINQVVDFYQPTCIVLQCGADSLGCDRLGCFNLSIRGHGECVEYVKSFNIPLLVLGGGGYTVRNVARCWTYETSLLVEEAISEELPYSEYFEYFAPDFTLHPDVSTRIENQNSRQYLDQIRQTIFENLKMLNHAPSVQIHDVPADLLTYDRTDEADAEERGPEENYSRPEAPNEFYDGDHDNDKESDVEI
Sequence of Histone deacetylase 3/Nuclear receptor corepressor 2 (HDAC3/NCoR2) (Q9Y618 whole entry, further chain): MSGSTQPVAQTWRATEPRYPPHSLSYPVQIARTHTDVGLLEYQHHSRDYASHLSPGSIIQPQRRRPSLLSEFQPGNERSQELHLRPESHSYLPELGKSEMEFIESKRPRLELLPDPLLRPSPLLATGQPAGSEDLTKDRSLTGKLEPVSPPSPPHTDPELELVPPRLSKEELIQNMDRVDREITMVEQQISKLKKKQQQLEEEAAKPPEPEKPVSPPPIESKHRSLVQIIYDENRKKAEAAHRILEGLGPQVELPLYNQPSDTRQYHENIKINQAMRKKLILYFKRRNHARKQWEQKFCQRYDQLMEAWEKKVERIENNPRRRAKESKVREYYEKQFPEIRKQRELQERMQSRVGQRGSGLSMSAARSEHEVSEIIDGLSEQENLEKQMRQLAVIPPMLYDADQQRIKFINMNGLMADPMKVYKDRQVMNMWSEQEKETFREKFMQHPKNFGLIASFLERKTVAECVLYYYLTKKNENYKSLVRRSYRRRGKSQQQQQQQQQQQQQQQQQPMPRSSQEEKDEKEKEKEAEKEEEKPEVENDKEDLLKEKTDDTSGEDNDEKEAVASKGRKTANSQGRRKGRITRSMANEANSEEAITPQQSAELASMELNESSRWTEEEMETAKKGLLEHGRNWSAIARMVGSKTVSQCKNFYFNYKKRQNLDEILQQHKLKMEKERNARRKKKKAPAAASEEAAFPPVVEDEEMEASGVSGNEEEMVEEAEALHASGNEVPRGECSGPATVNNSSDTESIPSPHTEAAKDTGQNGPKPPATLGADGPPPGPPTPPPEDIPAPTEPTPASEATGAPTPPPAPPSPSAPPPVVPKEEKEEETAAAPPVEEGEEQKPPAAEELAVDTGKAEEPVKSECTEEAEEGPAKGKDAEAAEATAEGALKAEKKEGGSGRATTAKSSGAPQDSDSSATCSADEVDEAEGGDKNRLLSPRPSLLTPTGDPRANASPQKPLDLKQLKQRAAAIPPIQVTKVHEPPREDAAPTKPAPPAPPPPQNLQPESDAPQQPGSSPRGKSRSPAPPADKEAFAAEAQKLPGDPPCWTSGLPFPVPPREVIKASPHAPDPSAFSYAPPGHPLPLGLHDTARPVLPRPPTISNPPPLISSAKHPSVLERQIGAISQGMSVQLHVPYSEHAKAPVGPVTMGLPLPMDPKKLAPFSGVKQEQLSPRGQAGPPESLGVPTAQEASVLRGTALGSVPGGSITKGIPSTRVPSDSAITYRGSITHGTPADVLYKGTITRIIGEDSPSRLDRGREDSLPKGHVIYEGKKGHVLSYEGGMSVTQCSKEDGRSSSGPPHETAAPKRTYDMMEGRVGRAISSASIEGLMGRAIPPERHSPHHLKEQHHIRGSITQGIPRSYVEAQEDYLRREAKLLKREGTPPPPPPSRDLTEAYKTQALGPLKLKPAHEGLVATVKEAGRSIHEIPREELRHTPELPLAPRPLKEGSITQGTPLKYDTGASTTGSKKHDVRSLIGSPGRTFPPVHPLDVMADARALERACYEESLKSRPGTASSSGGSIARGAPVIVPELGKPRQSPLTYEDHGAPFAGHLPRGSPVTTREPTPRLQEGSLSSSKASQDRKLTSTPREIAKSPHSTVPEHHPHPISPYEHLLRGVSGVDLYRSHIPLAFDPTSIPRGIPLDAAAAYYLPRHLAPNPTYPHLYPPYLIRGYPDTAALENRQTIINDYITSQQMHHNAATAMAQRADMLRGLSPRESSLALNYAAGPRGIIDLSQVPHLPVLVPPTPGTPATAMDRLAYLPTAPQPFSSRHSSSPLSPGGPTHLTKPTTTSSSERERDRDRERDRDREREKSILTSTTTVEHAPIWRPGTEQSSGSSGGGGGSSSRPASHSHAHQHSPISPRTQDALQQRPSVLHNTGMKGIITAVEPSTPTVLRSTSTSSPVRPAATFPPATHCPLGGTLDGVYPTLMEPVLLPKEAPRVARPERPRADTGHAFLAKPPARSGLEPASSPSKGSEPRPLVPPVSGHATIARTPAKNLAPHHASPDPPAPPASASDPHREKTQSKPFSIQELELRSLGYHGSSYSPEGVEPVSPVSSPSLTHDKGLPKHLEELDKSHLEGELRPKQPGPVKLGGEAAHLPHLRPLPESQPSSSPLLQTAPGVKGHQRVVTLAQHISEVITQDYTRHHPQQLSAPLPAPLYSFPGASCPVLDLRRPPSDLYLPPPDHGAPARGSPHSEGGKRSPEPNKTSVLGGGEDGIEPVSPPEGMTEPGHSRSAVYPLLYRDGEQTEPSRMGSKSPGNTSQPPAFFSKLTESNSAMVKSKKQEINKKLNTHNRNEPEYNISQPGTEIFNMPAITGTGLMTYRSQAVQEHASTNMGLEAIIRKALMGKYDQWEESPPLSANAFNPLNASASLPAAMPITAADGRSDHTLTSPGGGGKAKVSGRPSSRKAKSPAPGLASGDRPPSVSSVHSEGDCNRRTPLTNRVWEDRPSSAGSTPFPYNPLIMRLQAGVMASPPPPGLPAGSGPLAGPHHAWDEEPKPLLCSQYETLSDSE

Histone deacetylase 5 = Histone deacetylase 5 (Homo sapiens, UniProt Q9UQL6); assay: Inhibition of human HDAC5 using Boc-Lys(trifluoroacetyl)-AMC as substrate by fluorescence based assay
Sequence of Histone deacetylase 5 (Q9UQL6 whole entry): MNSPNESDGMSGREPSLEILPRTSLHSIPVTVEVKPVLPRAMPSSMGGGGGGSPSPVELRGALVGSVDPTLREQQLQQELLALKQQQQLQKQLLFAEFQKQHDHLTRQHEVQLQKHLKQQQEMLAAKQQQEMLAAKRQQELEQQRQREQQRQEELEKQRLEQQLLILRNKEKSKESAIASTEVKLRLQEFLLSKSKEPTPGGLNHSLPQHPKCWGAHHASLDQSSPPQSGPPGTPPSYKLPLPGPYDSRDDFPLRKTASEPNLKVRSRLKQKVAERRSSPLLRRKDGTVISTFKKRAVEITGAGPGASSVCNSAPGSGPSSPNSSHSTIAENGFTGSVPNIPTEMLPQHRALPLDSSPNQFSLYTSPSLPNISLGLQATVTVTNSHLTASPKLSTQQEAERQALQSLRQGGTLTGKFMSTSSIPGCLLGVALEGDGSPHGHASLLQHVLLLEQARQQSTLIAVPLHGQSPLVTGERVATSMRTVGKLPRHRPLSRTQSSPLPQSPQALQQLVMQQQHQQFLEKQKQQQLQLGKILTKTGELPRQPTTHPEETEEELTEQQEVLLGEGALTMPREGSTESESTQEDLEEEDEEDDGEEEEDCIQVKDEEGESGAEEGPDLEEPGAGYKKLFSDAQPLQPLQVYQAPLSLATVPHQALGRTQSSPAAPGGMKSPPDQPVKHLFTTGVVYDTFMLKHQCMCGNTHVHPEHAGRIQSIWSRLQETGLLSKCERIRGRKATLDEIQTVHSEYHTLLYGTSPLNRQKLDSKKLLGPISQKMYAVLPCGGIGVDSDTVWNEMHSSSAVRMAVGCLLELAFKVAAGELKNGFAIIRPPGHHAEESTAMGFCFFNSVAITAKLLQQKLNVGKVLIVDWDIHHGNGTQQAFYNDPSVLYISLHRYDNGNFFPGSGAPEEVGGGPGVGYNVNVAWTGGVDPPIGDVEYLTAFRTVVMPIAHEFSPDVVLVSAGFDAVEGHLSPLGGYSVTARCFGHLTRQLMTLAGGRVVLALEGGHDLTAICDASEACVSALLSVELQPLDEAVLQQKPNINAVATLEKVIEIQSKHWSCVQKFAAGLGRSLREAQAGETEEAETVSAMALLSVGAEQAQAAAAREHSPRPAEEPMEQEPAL

Histone deacetylase 8 = target: T2, Histone deacetylase 8 (Homo sapiens, UniProt Q9BY41); assay: Inhibition of human HDAC8 using RHK(Ac)-K(Ac) as substrate by fluorescence based assay
T2 sequence (Q9BY41 whole entry): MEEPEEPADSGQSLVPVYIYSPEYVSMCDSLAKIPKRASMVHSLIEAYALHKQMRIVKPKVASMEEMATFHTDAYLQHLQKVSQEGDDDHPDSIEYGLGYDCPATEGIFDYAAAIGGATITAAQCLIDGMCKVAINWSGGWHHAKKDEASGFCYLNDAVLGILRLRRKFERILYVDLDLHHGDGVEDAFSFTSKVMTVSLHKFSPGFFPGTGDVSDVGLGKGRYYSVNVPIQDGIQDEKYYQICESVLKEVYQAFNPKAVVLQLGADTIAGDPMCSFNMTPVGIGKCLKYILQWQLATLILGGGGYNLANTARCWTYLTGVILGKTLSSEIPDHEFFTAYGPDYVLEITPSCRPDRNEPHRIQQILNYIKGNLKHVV

PC-12 [8] = assay: Inhibition of HDAC6 in rat PC-12 cells assessed as increase in alpha-tubulin acetylation incubated for 24 hrs by Western blot analysis; type: cell-based; conditions: dose 0.1-1 µM

COc1ccc([C@H]2N[C@H](C(=O)NCc3ccc(C(=O)NO)cc3)Cc3c2[nH]c2ccccc32)cc1OC
IC50 (Histone deacetylase 1): 390 nM
Activity (PC-12 [1]): 23.3%
Activity (PC-12 [2]): inactive

O=C(NO)c1ccc(CNC(=O)[C@@H]2Cc3c([nH]c4ccccc34)[C@@H](C3CC3)N2Cc2ccc(Cl)cc2)cc1
IC50 (Histone deacetylase 1): 1740 nM
IC50 [3]: 11.2 nM
Ratio IC50 (Homo sapiens): 155
Activity (PC-12 [1]): 23.3%
Activity (PC-12 [4]): Dose-Dependent Effect
viability at 5 µM (PC-12 [5]): 92.5%

O=C(NO)c1ccc(CNC(=O)[C@@H]2Cc3c([nH]c4ccccc34)[C@@H](C3CC3)N2)cc1
IC50 (Histone deacetylase 1): 118 nM
IC50 [3]: 3.25 nM
Ratio IC50 (Homo sapiens): 36
Activity (PC-12 [1]): 23.3%
Activity (PC-12 [2]): inactive

O=C(NO)c1ccc(CNC(=O)[C@@H]2Cc3c([nH]c4ccccc34)[C@@H](C3CC3)N2Cc2ccccc2)cc1
IC50 (Histone deacetylase 1): 1700 nM
IC50 [3]: 12.7 nM
Ratio IC50 (Homo sapiens): 134
Activity (PC-12 [1]): 23.3%
Activity (PC-12 [4]): Dose-Dependent Effect
viability at 5 µM (PC-12 [5]): > 85%

O=C(NO)c1ccc(CNC(=O)[C@@H]2Cc3c([nH]c4ccccc34)[C@@H](C3CCCC3)N2)cc1
IC50 (Histone deacetylase 1): 204 nM
IC50 [3]: 4.54 nM
Ratio IC50 (Homo sapiens): 45
Activity (PC-12 [1]): 23.3%
Activity (PC-12 [2]): inactive

O=C(NO)c1ccc(CNC(=O)[C@@H]2Cc3c([nH]c4ccccc34)[C@@H](c3ccc4c(c3)OCO4)N2)cc1
IC50 (Histone deacetylase 1): 216 nM
IC50 [3]: 2 nM
Ratio IC50 (Homo sapiens): 108
Activity (PC-12 [1]): 46.4%
Activity [6]: Toxic
Activity (PC-12 [2]): inactive

CN1CCc2c(c3ccccc3n2Cc2ccc(C(=O)NO)cc2)C1 [TUBASTATIN A]
Activity (PC-12 [1]): 26.7%
viability at 5 µM (PC-12 [5]): 77.6%

COc1ccc(CN2[C@H](C(=O)NCc3ccc(C(=O)NO)cc3)Cc3c([nH]c4ccccc34)[C@H]2C2CC2)cc1
Activity (PC-12 [1]): 23.3%
Activity (PC-12 [4]): Dose-Dependent Effect
viability at 5 µM (PC-12 [5]): > 85%

O=C(NO)c1ccc(CNC(=O)[C@@H]2Cc3c([nH]c4ccccc34)[C@@H](c3ccc(Cl)cc3)N2CC2CC2)cc1
IC50 (Histone deacetylase 1): 1280 nM
IC50 (Histone deacetylase 2): 1440 nM
IC50 [7]: 1660 nM
IC50 (Histone deacetylase 5): > 10000 nM
IC50 (Histone deacetylase 8): > 10000 nM
inhibition (PC-12 [8]): Dose-Dependent Effect
Activity (PC-12 [1]): 47.1%
Activity (PC-12 [4]): Dose-Dependent Effect
viability at 5 µM (PC-12 [5]): 99.6%

O=C(NO)c1ccc(CNC(=O)[C@@H]2Cc3c([nH]c4ccccc34)[C@@H](c3ccc(Cl)cc3)N2)cc1
IC50 (Histone deacetylase 1): 770 nM
IC50 [3]: 5.61 nM
Ratio IC50 (Homo sapiens): 137
Activity (PC-12 [1]): 23.3%
Activity (PC-12 [2]): inactive

COc1ccc(CN2[C@H](C)c3[nH]c4ccccc4c3C[C@H]2C(=O)NCc2ccc(C(=O)NO)cc2)cc1
IC50 (Histone deacetylase 1): > 10000 nM
IC50 [3]: 34.2 nM

O=C(NO)c1ccc(CNC(=O)[C@@H]2Cc3c([nH]c4ccccc34)[C@@H](c3ccccc3)N2)cc1
IC50 (Histone deacetylase 1): 742 nM
IC50 [3]: 5.3 nM
Ratio IC50 (Homo sapiens): 140
Activity (PC-12 [1]): 23.3%
Activity (PC-12 [2]): inactive
